The numbers were not newly measured in patent US11053254B2, “Crystalline forms of mitomycin C for treatment of cancer” (TRANSGENEX NANOBIOTECH, INC., priority 2018, dated 2021), which cites them from elsewhere.

For this series the following is noted: acidic solutions with pH<6.

For the compound `CO[C@@]12[C@H](COC(N)=O)C3=C(C(=O)C(C)=C(N)C3=O)N1C[C@@H]1N[C@@H]12` [Mitomycin C, [(4S,6S,7R,8S)-11-amino-7-methoxy-12-methyl-10,13-dioxo-2,5-diazatetracyclo[7.4.0.0^2,7.0^4,6]trideca-1(9),11-dien-8-yl]methyl carbamate], the “degradation in acidic solutions” value is recorded as “rapid degradation”.
